# In BindingDB's records for doi:10.1021/acsmedchemlett.0c00008 (Taisho Pharmaceutical, 2020):
# Experiment: Inhibition of Human respiratory syncytial virus A2 Fusion protein expressed in Hep2 cells assessed as reduction in virus-induced cytopathic effect after 4 days by XTT assay
row,SMILES,EC50 [nM]
1,CC[C@H]1c2cc3nc(N4CC[C@H](N)C4)cc(n3n2)N(C)CCCCCCOc2ccc(C)cc2C(=O)N1C,54
2,CC[C@H]1c2cc3nc(N4CC[C@H](N)C4)c(C)c(n3n2)NCCCCOc2ccc(C)cc2C(=O)N1C,1.4
3,CC[C@H]1c2cc3nc(N4CC[C@H](N)C4)cc(n3n2)N(C)CCCCCOc2ccc(C)cc2C(=O)N1C,6.2
4,CC[C@H]1c2cc3nc(N4CC[C@H](N)C4)cc(n3n2)NCCCCOc2ccc(C)cc2C(=O)N1C,61
5,CC[C@H]1c2cc3nc(N4CC[C@H](N)C4)c(C)c(n3n2)N(C)CCCCOc2ccc(C)cc2C(=O)N1C,8.1
6,Cc1ccc2c(c1)C(=O)N1CCCC[C@H]1c1cc3nc(N4CC[C@H](N)C4)cc(n3n1)N(C)CCCCO2,2
7,CC[C@@H](c1cc2nc(N3CC[C@H](N)C3)c(C)cn2n1)N(C)C(=O)c1cc(C)ccc1OC,3.8
8,CC[C@H]1c2cc3nc(N4CC[C@H](N)C4)cc(n3n2)N(C)CCCOc2ccc(C)cc2C(=O)N1C,17
9,CC[C@H]1c2cc3nc(N4CC[C@H](N)C4)cc(n3n2)N(C)CCCCOc2ccc(C)cc2C(=O)N1C,0.66

# Experiment: Inhibition of Human respiratory syncytial virus Fusion protein D486N mutant expressed in Hep2 cells assessed as reduction in virus-induced cytopathic effect after 4 days by XTT assay
row,SMILES,EC50 [nM]
1,CC[C@H]1c2cc3nc(N4CC[C@H](N)C4)cc(n3n2)N(C)CCCCCCOc2ccc(C)cc2C(=O)N1C,> 1000
2,CC[C@H]1c2cc3nc(N4CC[C@H](N)C4)c(C)c(n3n2)NCCCCOc2ccc(C)cc2C(=O)N1C,> 1000
3,CC[C@H]1c2cc3nc(N4CC[C@H](N)C4)cc(n3n2)N(C)CCCCCOc2ccc(C)cc2C(=O)N1C,> 1000
4,CC[C@H]1c2cc3nc(N4CC[C@H](N)C4)cc(n3n2)NCCCCOc2ccc(C)cc2C(=O)N1C,> 1000
5,CC[C@H]1c2cc3nc(N4CC[C@H](N)C4)c(C)c(n3n2)N(C)CCCCOc2ccc(C)cc2C(=O)N1C,> 1000
6,Cc1ccc2c(c1)C(=O)N1CCCC[C@H]1c1cc3nc(N4CC[C@H](N)C4)cc(n3n1)N(C)CCCCO2,8.1
7,CC[C@@H](c1cc2nc(N3CC[C@H](N)C3)c(C)cn2n1)N(C)C(=O)c1cc(C)ccc1OC,> 1000
8,CC[C@H]1c2cc3nc(N4CC[C@H](N)C4)cc(n3n2)N(C)CCCOc2ccc(C)cc2C(=O)N1C,> 1000
9,CC[C@H]1c2cc3nc(N4CC[C@H](N)C4)cc(n3n2)N(C)CCCCOc2ccc(C)cc2C(=O)N1C,440
